Data reported in PMC12892976, “Alkylation-based optimization of antifungal FPPS inhibitors yields a potent, broad-spectrum lipophilic zoledronate derivative” (mBio, 2025).
In brackets after ≈: the same amount, converted by molar mass. Like-named read-outs stand apart in the source and are kept apart here.

Tests used:
[1] = tested on: Cryptococcus deuterogattii; assay: MIC/MFC broth microdilution (CLSI); conditions: Cryptococcus deuterogattii;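 note: broth microdilution per CLSI M27-Ed4. MFC is the lowest concentration yielding no colonies when MIC broths are subcultured onto SDA plates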
Method: (§1) Antifungal susceptibility was determined by broth microdilution according to the CLSI guidelines described in M27-Ed4 ([16]). […] MFC was determined by back-plating drug-treated cultures from MIC broths onto SDA plates. The MFC was defined as the lowest concentration from which no colonies could be cultured.

[2] = tested on: Cryptococcus deuterogattii; assay: checkerboard drug interaction (FICI, MICc);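 for all read-outs here: simplified diagonal checkerboard screen pairing antifungal drugs with FPPS inhibitors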; format: cell-based; conditions: C. deuterogattii; for INH FD (MIC-MICc fold decrease): fold decrease of inhibitor MIC
Method: (§2) Drug interactions between antifungals and FPPS inhibitors were investigated using a simplified checkerboard diagonal screening method ([45]). […] FICIs were determined according to the Loewe additivity model ([17]).

HEK-293T cells = assay: MTT reduction cytotoxicity assay; format: cell-based; conditions: Homo sapiens, HEK-293T, 72 h, MTT, 72 h
Candida glabrata [3] = assay: MIC/MFC broth microdilution (CLSI); conditions: Nakaseomyces glabratus, CBS138;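 note: broth microdilution following CLSI M27-Ed4, MFC taken as the lowest drug level yielding no growth once MIC wells were subcultured on SDA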
Method: as §1

Aspergillus flavus [4] = assay: MIC/MFC broth microdilution (CLSI); conditions: ATCC204304
Method: as §1

Candida albicans [5] = assay: MIC/MFC broth microdilution (CLSI); format: cell-based; conditions: Candida albicans SC5314
Method: as §1

Aspergillus fumigatus [6] = assay: checkerboard drug interaction (FICI, MICc);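 for all read-outs here: simplified diagonal checkerboard screen pairing antifungals with FPPS inhibitors against Aspergillus fumigatus, with FICI calculated under the Loewe additivity model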; format: cell-based; conditions: A. fumigatus; for INH FD (MIC-MICc fold decrease): fold decrease of inhibitor MIC
Method: as §2

eight fungal species [7] = assay: checkerboard interaction with azoles, summary across the eight species; format: cell-based; conditions: geometric mean MIC in combination with azoles
From the text: Synergy between lipophilic FPPS inhibitors and azole antifungals was investigated by determining the fractional inhibitory concentration index (FICI) (Fig. 2; Table S1 Fig. S1) ([17]). […]. Derivatives PLA9 and 11, and PDA9, 11, and 12 antagonized azoles in C. albicans, C. neoformans, and C. deuterogattii, yet were largely synergistic in C. glabrata and S. cerevisiae. […].

eight fungal species [8] = assay: MIC/MFC summary across the eight fungal species of Table 1; format: cell-based
Method: The antifungal activity of these compounds was evaluated according to CLSI guidelines ([16]).

Candida albicans [9] = assay: checkerboard drug interaction (FICI, MICc);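 for all read-outs here: antifungal plus FPPS inhibitor combinations on Candida albicans tested by a simplified diagonal checkerboard screen, with FICI calculated under the Loewe additivity model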; format: cell-based; conditions: C. albicans; for INH FD (MIC-MICc fold decrease): fold decrease of inhibitor MIC
Method: as §2

Trichophyton rubrum [10] = assay: checkerboard drug interaction (FICI, MICc);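 note: simplified diagonal checkerboard screen pairing azole antifungals with FPPS inhibitors, FICI calculated under the Loewe additivity model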; format: cell-based; conditions: T. rubrum
Method: as §2

Cryptococcus neoformans [11] = assay: checkerboard drug interaction (FICI, MICc);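 for all read-outs here: antifungal plus FPPS inhibitor pairs tested against Cryptococcus neoformans by simplified diagonal checkerboard screening, FICI computed under the Loewe additivity model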; format: cell-based; conditions: C. neoformans; for INH FD (MIC-MICc fold decrease): fold decrease of inhibitor MIC
Method: as §2

Cryptococcus neoformans [12] = assay: MIC/MFC broth microdilution (CLSI); conditions: Cryptococcus neoformans;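 note: susceptibility testing followed the CLSI M27-Ed4 broth microdilution document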
Method: as §1

Candida glabrata [13] = assay: checkerboard drug interaction (FICI, MICc);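 for all read-outs here: simplified diagonal checkerboard screen pairing antifungals with FPPS inhibitors, FICI calculated under the Loewe additivity model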; format: cell-based; conditions: C. glabrata; for INH FD (MIC-MICc fold decrease): fold decrease of inhibitor MIC
Method: as §2

Saccharomyces cerevisiae [14] = assay: MIC/MFC broth microdilution (CLSI); format: cell-based; conditions: Saccharomyces cerevisiae S288c
Method: as §1

Aspergillus fumigatus [15] = assay: MIC/MFC broth microdilution (CLSI); conditions: ATCC204305
Method: as §1

Aspergillus flavus [16] = assay: checkerboard drug interaction (FICI, MICc);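 note: simplified diagonal checkerboard screen pairing azole antifungals with FPPS inhibitors, FICI calculated under the Loewe additivity model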; format: cell-based; parameters: INH MICc (KET:INH) / INH MICc (FLC:INH): unit not given beside the values; conditions: A. flavus
Saccharomyces cerevisiae [17] = assay: checkerboard drug interaction (FICI, MICc);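 for all read-outs here: simplified diagonal checkerboard screen pairing antifungals with FPPS inhibitors, FICI calculated under the Loewe additivity model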; format: cell-based; parameters: INH MICc / INH MICc (ITR:INH) / INH MICc (KET:INH) / INH MICc (FLC:INH): unit not given beside the values; conditions: S. cerevisiae; for INH FD (MIC-MICc fold decrease): fold decrease of inhibitor MIC
Trichophyton rubrum [18] = assay: MIC/MFC broth microdilution (CLSI); conditions: Trichophyton rubrum
Method: as §1

[19] = FLC:INH combination, MIC of the inhibitor in combination with FLC
[20] = FLC:INH combination, fold decrease of FLC MIC
[21] = ITR:INH combination, MIC of the inhibitor in combination with ITR
[22] = ITR:INH combination, fold decrease of ITR MIC
[23] = KET:INH combination, MIC of the inhibitor in combination with KET
[24] = KET:INH combination, fold decrease of KET MIC
[25] = FLC:INH combination, MIC of FLC in combination with the inhibitor
[26] = ITR:INH combination, MIC of ITR in combination with the inhibitor
[27] = KET:INH combination, MIC of KET in combination with the inhibitor
[28] = Fractional Inhibitory Concentration Index, fluconazole + inhibitor
[29] = Fractional Inhibitory Concentration Index, itraconazole + inhibitor
[30] = Fractional Inhibitory Concentration Index, ketoconazole + inhibitor
[31] = MIC of the inhibitor in combination with fluconazole
[32] = MIC of the inhibitor in combination with itraconazole
[33] = MIC of the inhibitor in combination with ketoconazole
[34] = MIC-MICc fold decrease of fluconazole, negative = increase
[35] = MIC-MICc fold decrease of itraconazole, negative = increase
[36] = MIC-MICc fold decrease of ketoconazole, negative = increase
[37] = MIC-MICc fold decrease of the inhibitor, with fluconazole
[38] = MIC-MICc fold decrease of the inhibitor, with itraconazole
[39] = MIC-MICc fold decrease of the inhibitor, with ketoconazole

CCCCCCCCCN1CCC[C@H]1C(=O)N[C@@H](CC(=O)OC)C(=O)OC [dmPLA9]
MFC [1]: > 128 µg/mL
MIC [1]: 128 µg/mL (≈ 333 µM)
FICI ([2]; FLC:INH combination): 3
INH MICc [2, 19]: 128
FLC FD (MIC-MICc fold decrease) [2, 20]: -2
INH FD (MIC-MICc fold decrease) ([2]; FLC:INH combination): 1
FICI ([2]; ITR:INH combination): ≥4
INH MICc [2, 21]: 256
ITR FD (MIC-MICc fold decrease) [2, 22]: -4
INH FD (MIC-MICc fold decrease) ([2]; ITR:INH combination): -2
FICI ([2]; KET:INH combination): 1.5
INH MICc [2, 23]: 128
KET FD (MIC-MICc fold decrease) [2, 24]: 2
INH FD (MIC-MICc fold decrease) ([2]; KET:INH combination): 1
IC50 (HEK-293T cells; HEK-293T cells, read-out: IC50): 41.4 µg/mL (≈ 108 µM)
IC50 (HEK-293T cells; read-out: HEK IC50): 41.4 µg/mL (≈ 108 µM)
MFC (Candida glabrata [3]): > 128 µg/mL
MIC (Candida glabrata [3]): 128 µg/mL (≈ 333 µM)
MFC (Aspergillus flavus [4]): > 128 µg/mL
MIC (Aspergillus flavus [4]): > 128 µg/mL
MFC (Candida albicans [5]): > 128 µg/mL
MIC (Candida albicans [5]): > 128 µg/mL
FICI (Aspergillus fumigatus [6]; FLC:INH combination): 3
FLC MICc (Aspergillus fumigatus [6]; [25]): 128
INH MICc (Aspergillus fumigatus [6]; [19]): 256
FLC FD (MIC-MICc fold decrease) (Aspergillus fumigatus [6]; [20]): 1
INH FD (MIC-MICc fold decrease) (Aspergillus fumigatus [6]; FLC:INH combination): -2
FICI (Aspergillus fumigatus [6]; ITR:INH combination): 1.03
ITR MICc (Aspergillus fumigatus [6]; [26]): 0.125
INH MICc (Aspergillus fumigatus [6]; [21]): 4
ITR FD (MIC-MICc fold decrease) (Aspergillus fumigatus [6]; [22]): 1
INH FD (MIC-MICc fold decrease) (Aspergillus fumigatus [6]; ITR:INH combination): 32
FICI (Aspergillus fumigatus [6]; KET:INH combination): 2
KET MICc (Aspergillus fumigatus [6]; [27]): 4
INH MICc (Aspergillus fumigatus [6]; [23]): 128
KET FD (MIC-MICc fold decrease) (Aspergillus fumigatus [6]; [24]): 1
INH FD (MIC-MICc fold decrease) (Aspergillus fumigatus [6]; KET:INH combination): 1
GM fungal MICc (eight fungal species [7]): 52.3
MFC (eight fungal species [8]; across eight species, read-out: Geometric mean MFC): 197 µg/mL (≈ 513 µM)
MIC (eight fungal species [8]; geometric mean across eight species, read-out: GM fungal MIC): 128 µg/mL (≈ 333 µM)
MIC (eight fungal species [8]; read-out: Geometric mean MIC): 128 µg/mL (≈ 333 µM)
FICI (Candida albicans [9]; FLC:INH combination): 2.13
INH MICc (Candida albicans [9]; [19]): 16
FLC FD (MIC-MICc fold decrease) (Candida albicans [9]; [20]): -2
INH FD (MIC-MICc fold decrease) (Candida albicans [9]; FLC:INH combination): 8
FICI (Candida albicans [9]; ITR:INH combination): 2.13
INH MICc (Candida albicans [9]; [21]): 16
ITR FD (MIC-MICc fold decrease) (Candida albicans [9]; [22]): -2
INH FD (MIC-MICc fold decrease) (Candida albicans [9]; ITR:INH combination): 8
FICI (Candida albicans [9]; KET:INH combination): 2.13
INH MICc (Candida albicans [9]; [23]): 16
KET FD (MIC-MICc fold decrease) (Candida albicans [9]; [24]): -2
INH FD (MIC-MICc fold decrease) (Candida albicans [9]; KET:INH combination): 8
FICI (FLC:INH) (Trichophyton rubrum [10]; [28]): ≥4
FICI (ITR:INH) (Trichophyton rubrum [10]; [29]): 1.5
FICI (KET:INH) (Trichophyton rubrum [10]; [30]): 2
INH MICc (FLC:INH) (Trichophyton rubrum [10]; [31]): 256
INH MICc (ITR:INH) (Trichophyton rubrum [10]; [32]): 128
INH MICc (KET:INH) (Trichophyton rubrum [10]; [33]): 128
FLC FD (FLC:INH) (Trichophyton rubrum [10]; [34]): -2
ITR FD (ITR:INH) (Trichophyton rubrum [10]; [35]): 2
KET FD (KET:INH) (Trichophyton rubrum [10]; [36]): 1
INH FD (FLC:INH) (Trichophyton rubrum [10]; [37]): -2
INH FD (ITR:INH) (Trichophyton rubrum [10]; [38]): 1
INH FD (KET:INH) (Trichophyton rubrum [10]; [39]): 1
FICI (Cryptococcus neoformans [11]; FLC:INH combination): ≥4
INH MICc (Cryptococcus neoformans [11]; [19]): 128
FLC FD (MIC-MICc fold decrease) (Cryptococcus neoformans [11]; [20]): -4
INH FD (MIC-MICc fold decrease) (Cryptococcus neoformans [11]; FLC:INH combination): -2
FICI (Cryptococcus neoformans [11]; ITR:INH combination): ≥4
INH MICc (Cryptococcus neoformans [11]; [21]): 128
ITR FD (MIC-MICc fold decrease) (Cryptococcus neoformans [11]; [22]): -4
INH FD (MIC-MICc fold decrease) (Cryptococcus neoformans [11]; ITR:INH combination): -2
FICI (Cryptococcus neoformans [11]; KET:INH combination): 3
INH MICc (Cryptococcus neoformans [11]; [23]): 64
KET FD (MIC-MICc fold decrease) (Cryptococcus neoformans [11]; [24]): -2
INH FD (MIC-MICc fold decrease) (Cryptococcus neoformans [11]; KET:INH combination): 1
MFC (Cryptococcus neoformans [12]): > 128 µg/mL
MIC (Cryptococcus neoformans [12]): 128 µg/mL (≈ 333 µM)
FICI (Candida glabrata [13]; FLC:INH combination): ≥4
INH MICc (Candida glabrata [13]; [19]): 64
FLC FD (MIC-MICc fold decrease) (Candida glabrata [13]; [20]): -4
INH FD (MIC-MICc fold decrease) (Candida glabrata [13]; FLC:INH combination): 4
FICI (Candida glabrata [13]; ITR:INH combination): 1.5
INH MICc (Candida glabrata [13]; [21]): 8
ITR FD (MIC-MICc fold decrease) (Candida glabrata [13]; [22]): 1
INH FD (MIC-MICc fold decrease) (Candida glabrata [13]; ITR:INH combination): 32
FICI (Candida glabrata [13]; KET:INH combination): 1.5
INH MICc (Candida glabrata [13]; [23]): 8
KET FD (MIC-MICc fold decrease) (Candida glabrata [13]; [24]): 1
INH FD (MIC-MICc fold decrease) (Candida glabrata [13]; KET:INH combination): 32
MFC (Saccharomyces cerevisiae [14]): 32 µg/mL (≈ 83.2 µM)
MIC (Saccharomyces cerevisiae [14]): 32 µg/mL (≈ 83.2 µM)
MFC (Aspergillus fumigatus [15]): > 128 µg/mL
MIC (Aspergillus fumigatus [15]): 128 µg/mL (≈ 333 µM)
FICI (FLC:INH) (Aspergillus flavus [16]; [28]): 1.5
FICI (ITR:INH) (Aspergillus flavus [16]; [29]): 2
FICI (KET:INH) (Aspergillus flavus [16]; [30]): 1
INH MICc (FLC:INH) (Aspergillus flavus [16]; [31]): 128
INH MICc (ITR:INH) (Aspergillus flavus [16]; [32]): 256
INH MICc (KET:INH) (Aspergillus flavus [16]; [33]): 128
FLC FD (FLC:INH) (Aspergillus flavus [16]; [34]): 1
ITR FD (ITR:INH) (Aspergillus flavus [16]; [35]): 1
KET FD (KET:INH) (Aspergillus flavus [16]; [36]): 2
INH FD (FLC:INH) (Aspergillus flavus [16]; [37]): 2
INH FD (ITR:INH) (Aspergillus flavus [16]; [38]): 1
INH FD (KET:INH) (Aspergillus flavus [16]; [39]): 2
FICI (Saccharomyces cerevisiae [17]; FLC:INH combination): 2.5
FLC MICc (Saccharomyces cerevisiae [17]; [25]): 8
INH MICc (Saccharomyces cerevisiae [17]; [19]): 16
FLC FD (MIC-MICc fold decrease) (Saccharomyces cerevisiae [17]; [20]): -2
INH FD (MIC-MICc fold decrease) (Saccharomyces cerevisiae [17]; FLC:INH combination): 2
FICI (Saccharomyces cerevisiae [17]; ITR:INH combination): 3
ITR MICc (Saccharomyces cerevisiae [17]; [26]): 0.5
INH MICc (Saccharomyces cerevisiae [17]; [21]): 32
ITR FD (MIC-MICc fold decrease) (Saccharomyces cerevisiae [17]; [22]): -2
INH FD (MIC-MICc fold decrease) (Saccharomyces cerevisiae [17]; ITR:INH combination): 1
FICI (Saccharomyces cerevisiae [17]; KET:INH combination): 1.06
KET MICc (Saccharomyces cerevisiae [17]; [27]): 2
INH MICc (Saccharomyces cerevisiae [17]; [23]): 2
KET FD (MIC-MICc fold decrease) (Saccharomyces cerevisiae [17]; [24]): 1
INH FD (MIC-MICc fold decrease) (Saccharomyces cerevisiae [17]; KET:INH combination): 16
MFC (Trichophyton rubrum [18]): > 128 µg/mL
MIC (Trichophyton rubrum [18]): 128 µg/mL (≈ 333 µM)
